Literature values in US20240164375A1, “LIQUID DISINFECTANT COMPOSITION AND USE THEREOF” (HYPRED, priority 2002, published 2024).

Details: 25° C.

pKa: 4.85
Compound: CCCCCCCC(=O)O [octanoic acid]
